Assay results taken from PubChem BioAssay AID2305 (GlaxoSmithKline (GSK), 2010).
Several values for one entry are separate records, joined by “and”; a condition that tells them apart may be missing. Equal entries are not always repeated.

Tested on: P. falciparum 3D7 growth, pLDH absorbance
Test: P. falciparum 3D7 growth inhibition, dose response, strain 3D7 (AID 2305)

Row | Structure (SMILES) | IC50
1 | CCOC(=O)c1ccc(NC(=O)Nc2cccc(-c3ccc(-c4nc5c(C)cccc5[nH]4)s3)c2)cc1 | 140 nM
2 | CC(C)N1CCCN(C(=O)C2CCN(c3ccc(C(=O)N4CCCC4)cn3)CC2)CC1 | 1060 nM
3 | CC(Cc1ccc(COc2ccc(CC(CO)NCCc3cccc(Cl)c3)cc2)cc1)NCCc1cccc(Cl)c1 (centres undefined) | 820 nM
4 | CCOC(=O)c1ccc(NC(=O)N[C@@H](Cc2ccccc2)C(=O)NC2CCN(Cc3ccc(O)cc3)C2)cc1 (some centres undefined) | 630 nM
5 | Cc1cccc2[nH]c(-c3ccc(-c4cccc(CN5CCC(CO)CC5)c4)s3)nc12 | 940 nM
6 | O=C(N[C@@H](CC1CCCCC1)C(=O)NC1CCCc2ccccc21)c1ccc(O)c(-c2ccc(Cl)c(Cl)c2)c1 (some centres undefined) | 200 nM
7 | O=c1cnc2ccc(F)cc2n1CCN1CCC(NCc2cc(-c3ccccc3)cs2)CC1 | 860 nM
8 | COc1ccc2ncc(F)c(CCN3[C@@H]4CC[C@H]3CC(NCc3ccc5c(c3)OCCO5)C4)c2n1 (some centres undefined) | 230 nM
9 | Cc1[nH]c(C)c(-c2ccc(CCc3ccc(N)cc3)cc2)c(=O)c1Cl | 100 nM
10 | O=C(C=Cc1ccc([N+](=O)[O-])cc1)NC1CCC(CN2CCC(c3c[nH]c4ccccc34)CC2)CC1 (centres undefined) | 790 nM and 840 nM
11 | O=c1cc(NCCCNCc2cn(S(=O)(=O)c3ccccc3)c3ccccc23)[nH]c2ccccc12 | 880 nM
12 | CCc1nc(N)nc(N)c1-c1ccc(Cl)cc1 | 60 nM and 30 nM
13 | Cc1ccc(NC(=O)N2CCCN(CCCCCNC(=O)/C=C/c3ccc(Cl)c(Cl)c3)CC2)cc1C | 770 nM
14 | CCOC(=O)CCCCCNC[C@H](O)c1ccccc1 | 330 nM
15 | CN1CCC(N2CCN(Cc3cccc(-c4ccc(-c5nc6ccccc6[nH]5)cc4)c3)CC2)CC1 | 160 nM
16 | O=C1CC(C(=O)O)CC(=O)N1 | 760 nM
17 | CCN(C(=O)CSc1cc(C)c2cc(C)cc(C)c2n1)C1CCS(=O)(=O)C1 (centres undefined) | 670 nM
18 | O=S(=O)(/C=C/c1ccccc1)N(Cc1ccc(-c2ccc(CNCCc3ccccc3)cc2)cc1)CC1CCCCN1 (centres undefined) | 790 nM
19 | COc1ccccc1N1CCN(CCCCNC(=O)c2ccc(NC(=O)c3ccc(OC(F)(F)F)cc3)cc2)CC1 | 660 nM
20 | COc1ccc2ncc(Cl)c(CCN3C[C@H](CNCc4ccc5c(n4)NC(=O)CS5)[C@H](O)C3)c2n1 | 1000 nM
21 | c1cc(CNC2CCCC2)cc(-c2ccc(CNc3ccc4ncccc4c3)cc2)c1 | 770 nM
22 | CCCc1cc(Cc2cnc(N)nc2N)c2cccnc2c1OC | 670 nM
23 | COc1ccc(CN=C(N)Nc2nc(-c3ccc(OCCCn4ccnc4)cc3)cs2)cc1 | 390 nM
24 | COc1ccc(NC(=O)NC2CCN(c3ccnc4cc(Cl)ccc34)C2)cc1 (centres undefined) | 100 nM
25 | CC1(C)CC(=O)c2c(O)cc(OCc3ccncc3)cc2O1 | 1040 nM

Row | Structure (SMILES) | IC50
26 | O=C(Nc1ccc(Cl)c(Cl)c1)N(Cc1ccccc1Br)C1CCNCC1 | 1030 nM
27 | N=C(N)c1ccc2nc(SCc3ccccc3)[nH]c2c1 | 690 nM
28 | CCc1cn2c3c(cc(C(=O)N[C@@H](Cc4ccccc4)[C@H](O)CNC4CCC4)cc13)N(C)S(=O)(=O)CC2 | 100 nM
29 | CCCOc1ccc(C=C(CC(=O)O)c2nc3ccccc3s2)cc1OCC | 550 nM
30 | CN(C)CC1CCCN1Cc1ccccc1-c1cnn(C)c(=O)c1Oc1ccc(F)cc1 (centres undefined) | 1220 nM
31 | CC(C)(CNCc1ccc(Cl)c(Cl)c1)c1nc(-c2ccc(Cl)c(O)c2)c(-c2ccncc2)[nH]1 | 760 nM
32 | COc1ccccc1C(C)NCC(=O)Nc1ccccc1Sc1ccccc1 (centres undefined) | 1100 nM
33 | CO/C(=C\C=C\c1cc2cc(Cl)c(Cl)cc2[nH]1)C(=O)NC1CCN(CCNc2ccccc2)CC1 | 260 nM
34 | NC(=NC1CC1)c1ccc2nc(CCCCCc3nc4ccc(C(N)=NC5CC5)cc4[nH]3)[nH]c2c1 | 930 nM
35 | COCCN1CCN(Cc2cccc(-c3ccc(-c4nc5ccccc5[nH]4)cc3)c2)CC1 | 760 nM
36 | O=C(/C=C/c1ccc(Cl)c(Cl)c1)NCCCCCN1CCC(CCNC(=O)C2(c3ccc(Cl)cc3)CC2)CC1 | 920 nM
37 | Cc1cccc(-c2nn(-c3ccccc3)cc2C(=O)Nc2nnc(C)o2)c1 | 1160 nM
38 | COc1ccc(-c2cccc(NC(=O)c3ccccc3)c2)cc1CN1CCCN(C)CC1 | 730 nM
39 | CC(C)Sc1nc2c(c(=O)n1Cc1ccco1)C1(CCCCC1)Cc1ccccc1-2 | 250 nM
40 | O=C(Nc1ccc(-c2cccc(-c3nc4ccccc4[nH]3)c2)cc1)c1cnn2cccnc12 | 600 nM
41 | CN1CCCC1CCNCc1cccc(-c2cnc(N3CCCC(C)(C)C3)nc2)c1 (centres undefined) | 930 nM
42 | O=C(CCc1cccnc1)Nc1cccc(-c2ccc(-c3nc4ccc(C(F)(F)F)cc4[nH]3)cc2)c1 | 870 nM
43 | COc1ccc2nccc([C@@H](O)CN3CCC(NCc4ccc5cccc(O)c5n4)CC3)c2c1 | 1130 nM
44 | CCCc1cc(OC)c(C[C@@H]2c3cc(O)c(Cl)cc3CCN2C)cc1OC | 720 nM
45 | COc1ccccc1NC(=O)Nc1ccc(-c2ccc(-c3nc4c(C)cccc4[nH]3)s2)cc1 | 160 nM
46 | O=C(CC1CCCCC1)NCC(NCCCNc1cc(=O)c2ccccc2[nH]1)c1cc(Br)cc(Br)c1 (centres undefined) | 1050 nM
47 | COc1cc2nc(N3CCC(CNC(=O)c4ccc(-c5ccccc5)cc4)CC3)nc(N)c2cc1OC | 570 nM
48 | Cc1cc(-c2ccc(NC(=O)N3CCc4cc(Cl)c(N5CCN(C)CC5)cc43)cc2)ccc1C#N | 590 nM
49 | C#CCNCc1ccc(-c2cccc(-c3nc4c(C)cccc4[nH]3)c2)cc1 | 820 nM
